Assay results as given in US8507536B2, “Gonadotropin-releasing hormone receptor antagonists and methods relating thereto” (Neurocrine Biosciences, Inc., priority 2007, dated 2013).

Biological target: T1, human GnRH receptor (Homo sapiens, UniProt P30968)
T1 construct: expressed in transfected cells; membrane preparations
T1 sequence (P30968 1-328): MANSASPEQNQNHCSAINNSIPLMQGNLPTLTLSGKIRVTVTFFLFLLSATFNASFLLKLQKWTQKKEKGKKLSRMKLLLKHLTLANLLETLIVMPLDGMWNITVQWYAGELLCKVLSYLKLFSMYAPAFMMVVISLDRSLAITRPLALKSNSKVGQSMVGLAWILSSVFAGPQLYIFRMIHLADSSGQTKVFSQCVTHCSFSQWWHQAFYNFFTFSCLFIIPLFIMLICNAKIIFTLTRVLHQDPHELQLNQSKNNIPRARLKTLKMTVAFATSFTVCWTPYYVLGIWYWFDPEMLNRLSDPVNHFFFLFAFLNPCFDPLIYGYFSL
Assay: peptide competitive human receptor binding assays (radioligand displacement)
Details: tested in one or more of the peptide competitive human receptor binding assays
Procedure: HEK293 cells stably transfected with the human GnRH receptor are grown for two days after achieving confluence then are harvested by striking tissue culture flasks against a firm surface. Cells are collected by centrifugation at 1000 g for […]. Cell pellets are resuspended in 5% sucrose and homogenized using a polytron homogenizer for two 15 second homogenization steps. Cell homogenates are then centrifuged for 5 minutes at 3000 g to remove nuclei and the supernatant subsequently centrifuged for 30 minutes at 44,000 g to collect the membrane fraction. The membrane pellet is resuspended in GnRH binding buffer (10 mM HEPES, pH 7.5, 150 mM NaCl and 0.1% BSA) and aliquots immediately snap-frozen in liquid nitrogen and stored at −80° C. Protein content of the membrane suspension is determined using the Bio-Rad protein assay kit (Bio-Rad).
RBL cells stably transfected with the human GnRH receptor are grown to 80% confluency prior to harvesting. The cells are incubated at 37° C. for 10 min in 0.5 mM EDTA/PBS (Ca^++, Mg^++ free), and are dislodged from the plate by gentle rapping of the flasks. Cells are collected and pelleted by centrifugation at 1000 g for 5 minutes. Cell pellets are resuspended in buffer (DPBS supplemented with 10 mM MgCl2, 2 mM EGTA, pH=7.4), and cell lysis is performed using a pressure cell and applying N2 at a pressure of 900 psi for 30 min at 4° C. Unbroken cells and larger debris were removed by centrifugation at 1200 g for 10 min at 4° C. The cell membrane supernatant is then centrifuged at 45,000 g and the resulting membrane pellet is resuspended in assay buffer and homogenized on ice using a tissue homogenizer. Protein concentrations are determined using the Coomassie Plus Protein Reagent kit. Membranes are aliquoted and stored at −80° C. until ready for use.
Radioligand binding displacement assays using the peptide radioligands are performed in buffer containing 10 mM HEPES, 150 mM NaCl and 0.1% BSA, pH=7.5. Radioligand binding assays employing the use of [^3H]-1-(2,6-difluorobenzyl)-3-[(2R)-amino-2-phenethyl]-5-(2-fluoro-3-methoxyphenyl)-6-methyluracil (here the 3-methoxy group is tritiated) are run in buffer containing 50 mM Tris, 150 mM NaCl, 5 mM MgCl2, 0.01% saponin and 0.5 mM EDTA, pH=7.5. Radioligand displacement assays are performed by incubating radioligand ([^125I-Tyr^5, DLeu^6, NMeLeu^7, Pro^9-NEt]GnRH (0.1 nM), [His^5, ^125I-DTyr^6]GnRH (0.2 nM) (31) or [^3H]-1-(2,6-difluorobenzyl)-3-[(2R)-amino-2-phenethyl]-5-(2-fluoro-3-methoxyphenyl)-6-methyluracil (1 nM)), unlabeled competitors at concentrations ranging from 0.3 pM to 10 μM, and membranes for 2 hrs at rt. 10 to 20 μg protein/well is used from membrane preparations for human, monkey and rabbit GnRH receptor. 5 μg/well and 60 μg/well of membranes are used for rat and dog GnRH receptors, respectively. Binding assays are performed in either Millipore 96-well GF/C filtration plates (for ([^125I-Tyr^5, DLeu^6, NMeLeu^7, Pro^9-NEt]GnRH assays), or in 96 well low binding plates, which are subsequently filtered onto GF/C Unifilters. Filters are pretreated with 0.5% PEI for 30 min prior to use. Reactions are terminated by rapid vacuum filtration, and the filters are washed twice with 250 μL ice cold PBS pH=7.4 (0.01% Tween-20 is included in wash media for [His^5, ^125I-DTyr^6]GnRH and [^3H]-1-(2,6-difluorobenzyl)-3-[(2R)-amino-2-phenethyl]-5-(2-fluoro-3-methoxyphenyl)-6-methyluracil radioligands). The filters are dried, and the Millipore filters are monitored for radioactivity using a Cobra II gamma counter (Perkin Elmer Life Sciences). For assays filtered onto the GF/C Unifilter plates, 50 μL scintillation fluid is added to each filter, and radioactivity is monitored using a TopCount NXT. For iodinated radioligands, total radioligand is monitored on a gamma counter, and for the tritiated radioligand, total radioligand is monitored using a Perkin Elmer 1600TR liquid scintillation counter. […]

SMILES: Cc1cc(Cl)ncc1-c1cc(S(=O)(=O)N2CCCCc3ccccc32)ccc1Cl [Example 4-1, 1-[4-chloro-3-(6-chloro-4-methyl-pyridin-3-yl)-benzenesulfonyl]-2,3,4,5-tetrahydro-1H-1-benzazepine]
- Ki: ≤ 100 nM

SMILES: Cc1cc(Cl)ncc1-c1cc(S(=O)(=O)N2CCCC(=O)c3ccccc32)ccc1Cl [Example 4-2]
- Ki: ≤ 100 nM

SMILES: Cc1cc(Cl)ncc1-c1cc(S(=O)(=O)N2CCCc3ccccc32)ccc1Cl [Example 4-3]
- Ki: ≤ 100 nM

SMILES: Cc1cc(Cl)ncc1-c1cc(S(=O)(=O)N2CCOc3ccccc32)ccc1Cl [Example 4-4]
- Ki: ≤ 100 nM

SMILES: Cc1cc(Cl)ncc1-c1cc(S(=O)(=O)N2CCC(C)(C)c3ccccc32)ccc1Cl [Example 4-5]
- Ki: ≤ 100 nM

SMILES: Cc1cc(Cl)c(-c2cc(S(=O)(=O)N3CCCc4ccccc43)ccc2Cl)cn1 [Example 4-8]
- Ki: ≤ 100 nM

SMILES: Cc1cc(C(F)(F)F)ncc1-c1cc(S(=O)(=O)N2CCCCc3ccccc32)ccc1Cl [Example 4-9]
- Ki: ≤ 100 nM

SMILES: Cc1cc(C(F)(F)F)ncc1-c1cc(S(=O)(=O)N2CCCc3ccccc32)ccc1Cl [Example 4-10]
- Ki: ≤ 100 nM

SMILES: Cc1cc(C(F)(F)F)ncc1-c1cc(S(=O)(=O)N2CCOc3ccccc32)ccc1Cl [Example 4-11]
- Ki: ≤ 100 nM

SMILES: N#Cc1cc(C(F)(F)F)ncc1-c1cc(S(=O)(=O)N2CCCCc3ccccc32)ccc1Cl [Example 4-13]
- Ki: ≤ 100 nM

SMILES: Cc1cccc2c1N(S(=O)(=O)c1ccc(Cl)c(-c3cnc(C(F)(F)F)cc3C#N)c1)CCC2 [Example 4-14]
- Ki: ≤ 100 nM

SMILES: N#Cc1cc(C(F)(F)F)ncc1-c1cc(S(=O)(=O)N2CCOc3ccccc32)ccc1Cl [Example 4-15]
- Ki: ≤ 100 nM

SMILES: CC1(C)CCN(S(=O)(=O)c2ccc(Cl)c(-c3cnc(C(F)(F)F)cc3C#N)c2)c2ccccc21 [Example 4-16]
- Ki: ≤ 100 nM

SMILES: N#Cc1cc(C(F)(F)F)ncc1-c1cc(S(=O)(=O)N2CCOCc3ccccc32)ccc1Cl [Example 4-17]
- Ki: ≤ 100 nM

SMILES: N#Cc1cc2ccccc2nc1-c1cc(S(=O)(=O)N2CCCCc3ccccc32)ccc1Cl [Example 4-18]
- Ki: ≤ 100 nM

SMILES: CC1(C)CCN(S(=O)(=O)c2ccc(Cl)c(-c3nc4ccccc4cc3C#N)c2)c2ccccc21 [Example 4-19]
- Ki: ≤ 100 nM

SMILES: Cc1cccc2c1N(S(=O)(=O)c1ccc(Cl)c(-c3cnc(C(F)(F)F)cc3C#N)c1)CCCO2 [Example 4-20]
- Ki: ≤ 100 nM

SMILES: Cc1cc(Cl)ncc1-c1cc(S(=O)(=O)N2CCCOc3ccccc32)ccc1Cl [Example 4-23]
- Ki: ≤ 100 nM

SMILES: N#Cc1cc(C(F)(F)F)ncc1-c1cc(S(=O)(=O)N2CCCOc3ccccc32)ccc1Cl [Example 4-24]
- Ki: ≤ 100 nM

SMILES: O=S(=O)(c1ccc(Cl)c(-c2cnc(Cl)cc2Cl)c1)N1CCCCc2ccccc21 [Example 5-1, 1-[4-Chloro-3-(4,6-dichloro-pyridin-3-yl)-benzenesulfonyl]-2,3,4,5-tetrahydro-1H-1-benzazepine]
- Ki: ≤ 100 nM

SMILES: COc1ccccc1N(C)S(=O)(=O)c1ccc(Cl)c(-c2cnc(Cl)cc2Cl)c1 [Example 5-2]
- Ki: ≤ 100 nM

SMILES: O=S(=O)(c1ccc(Cl)c(-c2cnc(Cl)cc2Cl)c1)N1CCCc2ccccc21 [Example 5-3]
- Ki: ≤ 100 nM

SMILES: O=S(=O)(c1ccc(Cl)c(-c2cnc(Cl)cc2Cl)c1)N1CCOc2ccccc21 [Example 5-4]
- Ki: ≤ 100 nM

SMILES: CC1(C)CCN(S(=O)(=O)c2ccc(Cl)c(-c3cnc(Cl)cc3Cl)c2)c2ccccc21 [Example 5-5]
- Ki: ≤ 100 nM

SMILES: CC1CCc2ccccc2N1S(=O)(=O)c1ccc(Cl)c(-c2cnc(Cl)cc2Cl)c1 (stereo not drawn) [Example 5-6]
- Ki: ≤ 100 nM

SMILES: CC(C)(C)OC(=O)CCCOc1cc(Cl)c(-c2cnc(C(F)(F)F)cc2C#N)cc1S(=O)(=O)N1CCCCc2ccccc21 [Example 6-1, 4-[5-chloro-4-(4-cyano-6-trifluoromethyl-pyridin-3-yl)-2-(2,3,4,5-tetrahydro-benzo[b]azepine-1-sulfonyl)-phenoxy]-butyric acid tert-butyl ester]
- Ki: ≤ 100 nM

SMILES: CC(C)(C)OC(=O)COc1cc(Cl)c(-c2cnc(C(F)(F)F)cc2C#N)cc1S(=O)(=O)N1CCCCc2ccccc21 [Example 6-5]
- Ki: ≤ 100 nM

SMILES: N#Cc1cc(C(F)(F)F)ncc1-c1cc(S(=O)(=O)N2CCCCc3ccccc32)c(OCCCC(=O)O)cc1Cl [Example 7-1, 4-[5-chloro-4-(4-cyano-6-trifluoromethyl-pyridin-3-yl)-2-(2,3,4,5-tetrahydro-benzo[b]azepine-1-sulfonyl)-phenoxy]-butyric acid]
- Ki: ≤ 100 nM

SMILES: Cc1cc(C(F)(F)F)ncc1-c1cc(S(=O)(=O)N2CCCCc3ccccc32)c(OCCCC(=O)O)cc1Cl [Example 7-2]
- Ki: ≤ 100 nM

SMILES: Cc1cc(C#N)ncc1-c1cc(S(=O)(=O)N2CCCCc3ccccc32)c(OCCCC(=O)O)cc1Cl [Example 7-3]
- Ki: ≤ 100 nM

SMILES: N#Cc1cc2ccccc2nc1-c1cc(S(=O)(=O)N2CCCCc3ccccc32)c(OCCCC(=O)O)cc1Cl [Example 7-4]
- Ki: ≤ 100 nM

SMILES: N#Cc1cc(C(F)(F)F)ncc1-c1cc(S(=O)(=O)N2CCCCc3ccccc32)c(OCC(=O)O)cc1Cl [Example 7-5]
- Ki: ≤ 100 nM

SMILES: N#Cc1cc(C(F)(F)F)ncc1-c1cc(S(=O)(=O)N2CCCCc3ccccc32)c(O)cc1Cl [Example 8-2]
- Ki: ≤ 100 nM

SMILES: N#Cc1cc2ccccc2nc1-c1cc(S(=O)(=O)N2CCCCc3ccccc32)c(O)cc1Cl [Example 8-3]
- Ki: ≤ 100 nM

SMILES: Cc1cc(C#N)ncc1-c1cc(S(=O)(=O)N2CCCCc3ccccc32)c(OCCCO)cc1Cl [Example 9-1, 5-[2-chloro-4-(3-hydroxy-propoxy)-5-(2,3,4,5-tetrahydro-benzo[b]azepine-1-sulfonyl)-phenyl]-4-methyl-pyridine-2-carbonitrile]
- Ki: ≤ 100 nM

SMILES: N#Cc1cc(C(F)(F)F)ncc1-c1cc(S(=O)(=O)N2CCCCc3ccccc32)c(OCCCO)cc1Cl [Example 9-2, 5-[2-Chloro-4-(3-hydroxy-propoxy)-5-(2,3,4,5-tetrahydro-benzo[b]azepine-1-sulfonyl)-phenyl]-2-trifluoromethyl-isonicotinonitrile]
- Ki: ≤ 100 nM

SMILES: Cc1cc(C#N)ncc1-c1cc(S(=O)(=O)N2CCCCc3ccccc32)c(OCCC(=O)O)cc1Cl [Example 10-1, 3-[5-chloro-4-(6-cyano-4-methyl-pyridin-3-yl)-2-(2,3,4,5-tetrahydro-benzo[b]azepine-1-sulfonyl)-phenoxy]-propionic acid]
- Ki: ≤ 100 nM

SMILES: N#Cc1cc(C(F)(F)F)ncc1-c1cc(S(=O)(=O)N2CCCCc3ccccc32)c(OCCC(=O)O)cc1Cl [Example 10-2, 3-[5-chloro-4-(4-cyano-6-trifluoromethyl-pyridin-3-yl)-2-(2,3,4,5-tetrahydro-benzo[b]azepine-1-sulfonyl)-phenoxy]-propionic acid]
- Ki: ≤ 100 nM

SMILES: CC1(C)CCN(S(=O)(=O)c2cc(-c3cnc(C(F)(F)F)cc3C#N)c(Cl)cc2OCCCCO)c2ccccc21 [Example 11-1, 5-[2-chloro-5-(4,4-dimethyl-3,4-dihydro-2H-quinoline-1-sulfonyl)-4-(4-hydroxy-butoxy)-phenyl]-2-trifluoromethyl-isonicotinonitrile]
- Ki: ≤ 100 nM
